This is an account of results in patent US20240246977A1, “DEGRADATION OF BRUTON'S TYROSINE KINASE (BTK) BY CONJUGATION OF BTK INHIBITORS WITH E3 LIGASE LIGAND AND METHOD OF USE” (BeiGene Switzerland GmbH, priority 2021, published 2024).

A value given as a limit tells only on which side of the number the result lay.

For one assay, the system named is HEK-293 cells. Briefly: HEK-293 cytotoxicity detection (CellTiter-Glo). Format: cell-based. The following applies: Homo sapiens, 72 h, 72 h incubation, CellTiter-Glo luminescence, read-out: HEK293. The procedure, abridged: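 HEK-293 cells exposed 72 h to 8 compounds doses (4-fold dilutions, top stock 5 mM at 500×) in 0.2% DMSO. Viability by CellTiter-Glo luminescence; inhibition normalised to DMSO high control and low control, IC50 from four-parameter curve fit.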

For the next assay, the target named is BTK (Homo sapiens, UniProt Q06187). Description: BTK cell degradation in TMD-8 cells, HTRF assay. Format: cell-based. On the set-up: endogenous in cells; host or cells: TMD-8 cells. The note with it: 6 h treatment, IC50 (DC50) of BTK degradation. Summed up:
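TMD-8 cells treated 6 h with 8-dose series (6-fold dilutions, 0.2% DMSO final), then lysed and BTK quantified by HTRF (337/665/620 nm) after overnight antibody incubation at room temperature. Degradation normalized to DMSO high and low controls; DC50 and Dmax from four-parameter fit.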

Sequence of BTK (Q06187 whole entry): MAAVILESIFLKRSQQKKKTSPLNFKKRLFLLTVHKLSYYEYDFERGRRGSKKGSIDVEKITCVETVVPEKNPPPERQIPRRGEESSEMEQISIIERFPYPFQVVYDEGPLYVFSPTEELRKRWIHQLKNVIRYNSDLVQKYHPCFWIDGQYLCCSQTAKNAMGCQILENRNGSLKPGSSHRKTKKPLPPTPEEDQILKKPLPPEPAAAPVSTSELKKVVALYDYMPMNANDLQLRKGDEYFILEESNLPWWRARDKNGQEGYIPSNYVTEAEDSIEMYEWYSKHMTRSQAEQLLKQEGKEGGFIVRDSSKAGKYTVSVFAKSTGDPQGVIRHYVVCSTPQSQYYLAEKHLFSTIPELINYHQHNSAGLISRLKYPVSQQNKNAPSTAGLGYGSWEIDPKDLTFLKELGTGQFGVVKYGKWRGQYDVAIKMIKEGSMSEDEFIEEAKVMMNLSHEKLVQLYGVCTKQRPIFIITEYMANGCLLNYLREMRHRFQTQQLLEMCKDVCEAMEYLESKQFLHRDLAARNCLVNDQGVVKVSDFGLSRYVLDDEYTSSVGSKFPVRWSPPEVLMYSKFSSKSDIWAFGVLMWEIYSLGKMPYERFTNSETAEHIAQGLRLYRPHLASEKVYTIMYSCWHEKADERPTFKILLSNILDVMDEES

On to `Cc1c(C(=O)Nc2cn(C)cn2)ccc(-c2nn3c(c2C(N)=O)Nc2ccc(N4CCN(C[C@H]5CCN(c6ccc(N7CCC(=O)NC7=O)cc6)C5)CC4)cc2CC3)c1F` [Example B92, (R)-7-(4-((1-(4-(2,4-dioxotetrahydropyrimidin-1(2H)-yl)phenyl)pyrrolidin-3-yl)methyl)piperazin-1-yl)-2-(2-fluoro-3-methyl-4-((1-methyl-1H-imidazol-4-yl)carbamoyl)phenyl)-9,10-dihydro-4H-benzo[d]pyrazolo[1,5-a][1,3]diazepine-3-carboxamide], for which, in the assay on HEK-293 cells, the IC50 is > 10000 nM. This compound also gave a DC50 on BTK of 1.86 nM.
For `Cc1c(C(=O)Nc2cscn2)ccc(-c2nn3c(c2C(N)=O)Nc2ccc(N4CCN(CCc5cccc6c5oc(=O)n6C5CCC(=O)NC5=O)CC4)cc2CC3)c1F` (centres unmarked) [Example B96, 7-(4-(2-(3-(2,6-dioxopiperidin-3-yl)-2-oxo-2,3-dihydrobenzo[d]oxazol-7-yl)ethyl)piperazin-1-yl)-2-(2-fluoro-3-methyl-4-(thiazol-4-ylcarbamoyl)phenyl)-9,10-dihydro-4H-benzo[d]pyrazolo[1,5-a][1,3]diazepine-3-carboxamide] the same measures were 116 nM and 0.586 nM.
In the same order, the values of `COc1ccc(F)cc1C(=O)NCc1ccc(-c2nn3c(c2C(N)=O)Nc2ccc(N4CCN(CC5CCN(c6ccc(N7CCC(=O)NC7=O)cc6)CC5)CC4)cc2CC3)cc1` [Example C3, 7-(4-((1-(4-(2,4-dioxotetrahydropyrimidin-1(2H)-yl)phenyl)piperidin-4-yl)methyl)piperazin-1-yl)-2-(4-((5-fluoro-2-methoxybenzamido)methyl)phenyl)-9,10-dihydro-4H-benzo[d]pyrazolo[1,5-a][1,3]diazepine-3-carboxamide] are > 10000 nM and 0.343 nM.
For `COc1ccnc(NC(=O)c2ccc(-c3nn4c(c3C(N)=O)Nc3ccc(N5CCN(CC6CCN(c7ccc(N8CCC(=O)NC8=O)cc7)CC6)CC5)cc3CC4)c(F)c2C)c1` [Example B50, 7-(4-((1-(4-(2,4-dioxotetrahydropyrimidin-1(2H)-yl)phenyl)piperidin-4-yl)methyl)piperazin-1-yl)-2-(2-fluoro-4-((4-methoxypyridin-2-yl)carbamoyl)-3-methylphenyl)-9,10-dihydro-4H-benzo[d]pyrazolo[1,5-a][1,3]diazepine-3-carboxamide] the same measures were > 10000 nM and 2.16 nM.
For the compound `Cc1cccc(NC(=O)c2ccc(-c3nn4c(c3C(N)=O)Nc3ccc(N5CCN(C6CN(C7CN(c8ccc(C9CCC(=O)NC9=O)cc8)C7)C6)CC5)cc3CC4)c(F)c2C)n1` (centres unmarked) [Example B65, 7-(4-(1′-(4-(2,6-dioxopiperidin-3-yl)phenyl)-[1,3′-biazetidin]-3-yl)piperazin-1-yl)-2-(2-fluoro-3-methyl-4-((6-methylpyridin-2-yl)carbamoyl)phenyl)-9,10-dihydro-4H-benzo[d]pyrazol[1,5-a][1,3]diazepine-carboxamide], the IC50 in the assay on HEK-293 cells came to 98.8 nM. Also, it took 1.78 nM to reach half-maximal degradation on BTK (DC50).
In the same order, the values of `NC(=O)c1c(-c2ccc(C(=O)Nc3cc(C(F)(F)F)ccn3)cc2Cl)nn2c1Nc1ccc(N3CCN(CC4CCN(c5ccc(N6CCC(=O)NC6=O)cc5)CC4)CC3)cc1CC2` [Example B24, 2-(2-chloro-4-((4-(trifluoromethyl)pyridin-2-yl)carbamoyl)phenyl)-7-(4-((1-(4-(2,4-dioxotetrahydropyrimidin-1(2H)-yl)phenyl)piperidin-4-yl)methyl)piperazin-1-yl)-9,10-dihydro-4-benzo[d]pyrazolo[1,5-a][1,3]diazepine-3-carboxamide] are > 10000 nM and 1.51 nM.
In the same order, the values of `NC(=O)c1c(-c2ccc(C(=O)Nc3ccccn3)cc2)nn2c1Nc1ccc(N3CCN(CC4CCN(c5ccc(N6CCC(=O)NC6=O)cc5)CC4)CC3)cc1CC2` [Example B4, 7-(4-((1-(4-(2,4-dioxotetrahydropyrimidin-1(2H)-yl)phenyl)piperidin-4-yl)methyl)piperazin-1-yl)-2-(4-(pyridin-2-ylcarbamoyl)phenyl)-9,10-dihydro-4H-benzo[d]pyrazolo[1,5-a][1,3]diazepine-3-carboxamide] are > 10000 nM and 0.704 nM.
In the same order, the values of `Cc1cccc(NC(=O)c2ccc(-c3nn4c(c3C(N)=O)Nc3ccc(N5CCN(C(=O)C6CCN(c7ccc(N8CCC(=O)NC8=O)cc7)CC6)CC5)cc3CC4)c(F)c2C)n1` [Example B73, 7-(4-(1-(4-(2,4-dioxotetrahydropyrimidin-1(2H)-yl)phenyl)piperidine-4-carbonyl)piperazin-1-yl)-2-(2-fluoro-3-methyl-4-((6-methylpyridin-2-yl)carbamoyl)phenyl)-9,10-dihydro-4H-benzo[d]pyrazolo[1,5-a][1,3]diazepine-3-carboxamide] are > 10000 nM and 2.18 nM.
As for `NC(=O)c1c(-c2ccc(Oc3ccccc3)cc2)nn2c1Nc1cc(C3CCN(CCCOc4ccc(NC5CCC(=O)NC5=O)cc4)CC3)ccc1CC2` (centres unmarked) [Example A32, 6-(1-(3-(4-((2,6-dioxopiperidin-3-yl)amino)phenoxy)propyl)piperidin-4-yl)-2-(4-phenoxyphenyl)-9,10-dihydro-4H-benzo[d]pyrazolo[1,5-a] [1,3]diazepine-3-carboxamide], the IC50 in the assay with HEK-293 cells was found to be 417 nM. On BTK, this compound registered a DC50 of 6.03 nM.
For `COc1ccncc1C(=O)NCc1ccc(-c2nn3c(c2C(N)=O)Nc2ccc(N4CCN(CC5CCN(c6ccc(N7CCC(=O)NC7=O)cc6)CC5)CC4)cc2CC3)cc1C` [Example C35, 7-(4-((1-(4-(2,4-dioxotetrahydropyrimidin-1(2H)-yl)phenyl)piperidin-4-yl)methyl)piperazin-1-yl)-2-(4-((4-methoxynicotinamido)methyl)-3-methylphenyl)-9,10-dihydro-4H-benzo[d]pyrazolo[1,5-a][1,3]diazepine-3-carboxamide] the same measures were > 10000 nM and 1.1 nM.
For `NC(=O)c1c(-c2ccc(C(=O)Nc3cc(C(F)(F)F)ccn3)c(Cl)c2)nn2c1Nc1ccc(N3CCN(CC4CCN(c5ccc(N6CCC(=O)NC6=O)cc5)CC4)CC3)cc1CC2` [Example B26, 2-(3-chloro-4-((4-(trifluoromethyl)pyridin-2-yl)carbamoyl)phenyl)-7-(4-((1-(4-(2,4-dioxotetrahydropyrimidin-1(2H)-yl)phenyl)piperidin-4-yl)methyl)piperazin-1-yl)-9,10-dihydro-4H-benzo[d]pyrazolo[1,5-a][1,3]diazepine-3-carboxamide] the same measures were > 10000 nM and 0.928 nM.
For `Cc1cccc(NC(=O)c2ccc(-c3nn4c(c3C(N)=O)Nc3ccc(N5CCN(CC6CCN(c7cc8c(cc7F)CN(C7CCC(=O)NC7=O)C8=O)CC6)CC5)cc3CC4)c(F)c2C)n1` (centres unmarked) [Example B56, 7-(4-((1-(2-(2,6-dioxopiperidin-3-yl)-6-fluoro-3-oxoisoindolin-5-yl)piperidin-4-yl)methyl)piperazin-1-yl)-2-(2-fluoro-3-methyl-4-((6-methylpyridin-2-yl)carbamoyl)phenyl)-9,10-dihydro-4H-benzo[d]pyrazolo[1,5-a][1,3]diazepine-3-carboxamide] the same measures were > 10000 nM and 4.31 nM.
In the case of `COc1ccc(C(F)(F)F)cc1C(=O)NCc1ccc(-c2nn3c(c2C(N)=O)Nc2ccc(N4CCN(CC5CCN(c6ccc(N7CCC(=O)NC7=O)cc6)CC5)CC4)cc2CC3)c(OC)c1` [Example C27, 7-(4-((1-(4-(2,4-dioxotetrahydropyrimidin-1(2H)-yl)phenyl)piperidin-4-yl)methyl)piperazin-1-yl)-2-(2-methoxy-4-((2-methoxy-5-(trifluoromethyl)benzamido)methyl)phenyl)-9,10-dihydro-4H-benzo[d]pyrazolo[1,5-a][1,3]diazepine-3-carboxamide], the IC50 with HEK-293 cells was 209 nM. Half-maximal degradation on BTK (DC50) was put at 1.76 nM.
In the same order, the values of `Cc1cccc(NC(=O)c2ccc(-c3nn4c(c3C(N)=O)Nc3ccc(N5CCN(C6CC(c7ccc([C@@H]8CCC(=O)NC8=O)cc7)C6)CC5)cc3CC4)c(F)c2C)n1` (stereo partly drawn) [Example B68, (S)-7-(4-(3-(4-(2,6-dioxopiperidin-3-yl)phenyl)cyclobutyl)piperazin-1-yl)-2-(2-fluoro-3-methyl-4-((6-methylpyridin-2-yl)carbamoyl)phenyl)-9,10-dihydro-4H-benzo[d]pyrazolo[1,5-a][1,3]diazepine-3-carboxamide] are 105 nM and 2.56 nM.
As for `Cc1c(C(=O)Nc2cscn2)ccc(-c2nn3c(c2C(N)=O)Nc2ccc(N4CCN(C[C@H]5CCN(c6ccc(N7CCC(=O)NC7=O)cc6)C5)CC4)cc2CC3)c1F` [Example B103, (R)-7-(4-((1-(4-(2,4-dioxotetrahydropyrimidin-1(2H)-yl)phenyl)pyrrolidin-3-yl)methyl)piperazin-1-yl)-2-(2-fluoro-3-methyl-4-(thiazol-4-ylcarbamoyl)phenyl)-9,10-dihydro-4H-benzo[d]pyrazolo[1,5-a][1,3]diazepine-3-carboxamide], in the assay on HEK-293 cells, the IC50 is > 10000 nM. On BTK, this compound yielded a DC50 of 3.3 nM.
For `COc1cc(C(=O)Nc2cccc(C)n2)ccc1-c1nn2c(c1C(N)=O)Nc1ccc(N3CCN(CC4CCN(c5ccc(N6CCC(=O)NC6=O)cc5)CC4)CC3)cc1CC2` [Example B22, 7-(4-((1-(4-(2,4-dioxotetrahydropyrimidin-1(2H)-yl)phenyl)piperidin-4-yl)methyl)piperazin-1-yl)-2-(2-methoxy-4-((6-methylpyridin-2-yl)carbamoyl)phenyl)-9,10-dihydro-4H-benzo[d]pyrazolo[1,5-a][1,3]diazepine-3-carboxamide] the same measures were > 10000 nM and 0.338 nM.
